Experimental data published in patent publication US7115657B2, “Bifunctional agents possessing antioxidant and antiarrhythmic activity” (Uni-Pharma Kleon Tsetis Pharmaceutical Laboratories S.A., priority 2000, dated 2006).

Key:
[1] = system: microsomal lipid peroxidation; experiment: in vitro lipid peroxidation, heat-inactivated hepatic microsomal fraction, Fe2+/ascorbate, TBA reactive material; type: biochemical, Fischer rats
Description: The antioxidant activity of the new compounds was initially evaluated as set forth below. in vitro lipid peroxidation (Bationi J. P., Fontecave M., Jaouen M., Mansuy D. “Vitamin E derivatives as new potent inhibitors of microsomal lipid peroxidation” Biochem. Biophys. Res. Com. 1991, 174, 1103)
For these experiments, heat-inactivated hepatic microsomal fraction from untreated Fischer rats (200–220 g), corresponding to 0.125 g liver/ml final volume, was used. The incubation mixture contained the microsomal fraction, ascorbic acid (0.2 mM), in Tris buffer (50 mM, pH 7.4) and various concentrations (5 μM–1 mM) of the examined compounds dissolved in DMSO. The lipid peroxidation reaction was initiated with the addition of a freshly prepared FeSO4 solution (10 μM) and aliquots were taken at various time intervals for 45 min. Lipid peroxidation was estimated spectroscopically (535 nm vs. 600 nm) as 2-thiobarbitouric acid (TBA) reactive material. Each experiment was performed at least in triplicate.
The effect of various concentrations of representative compounds of the present invention on lipid peroxidation is shown in Table 1. […] However, there are quantitative differences that appear to be connected with the position of the amide substituent and the length of the side chain.

[2] = system: isolated heart preparations; experiment: antiarrhythmic activity on isolated heart preparations, Krebs perfused Langerdorff model of ischemia and reperfusion; set-up: species or system Male Wistar rats; unit not given here; settings: drug present during last 5 min of ischemia and during reperfusion, control (no drug) 12 ± 4
Description: The evaluation of the antiarrhythmic activity of the compounds set forth above was carried out on isolated heart preparations using the Krebs perfused Langerdorff model (Heisier B. E., Ferrier G. R. “Proarrhythmic actions of flecainide in an isolated tissue model of ischemia and reperfusion” J. Pharmacol. Exp. Ther. 1996, 279, 317). Male Wistar rats, 250–300 g, were anesthetized with pentobarbitone (15 mg/rat=5 mg/100 g body weight) and heparinized (1000 IU)
Hearts were excised and washed in ice cold modified Krebs-Henseleit (KHB) buffer of the following composition in Mm: NaCl 118, KCl 4.7, NaHCO3 25, KH2PO4 1.2, MgSO4 1.4, CaCl2 2.5, Glucose 11. Hearts were mounted on a Langerdorff apparatus, perfused at a pressure 100 mmHg, at 37° C., with KHB (9 ml/min) for 30–40 min and then the “ischemic” KHB solution was applied for 15 min (this solution is a KH buffer in which the glucose is substituted by Tris HCl. The hearts were then perfused with normal KHB for 30 min. Drugs were present during the last 5 min of ischemia and during reperfusion at the final concentration of 30 or 100 μM.
Electrocardiograms were recorded during equilibration, ischemia and reperfusion.
The most important arrhythmias seem to occur during early reperfusion (Li G-R., Ferrier G. R. “Effects of lidocaine on reperfusion arrhythmias and electrophysiological properties in an isolated ventricular muscle model of ischemia and reperfusion” J. Pharmacol. Exp. Ther. 1991, 257, 997).

Compound: CCN(CC)CCNC(=O)C1(C)CCc2c(C)c(O)c(C)c(C)c2O1 (stereo not shown) [Compound a, N-(3,4-dihydro-6-hydroxy-2,5,7,8-tetramethyl-2H-1-benzopyran-2-carbonyl)-N′,N′-diethyl Ethylenediamine]
- % Inhibition ([1]; compound concentration 10 μM): 96.3%
- Incidence of arrhythmias during the reperfusion period ([2]; 30 μM): 7 ± 3.5
- Incidence of arrhythmias during the reperfusion period ([2]; 100 μM): 5 ± 2

Compound: Cc1c(C)c2c(c(C)c1O)CCC(C)(C(=O)O)O2 (stereo not shown) [Trolox, reference compound]
- % Inhibition ([1]; compound concentration 10 μM): 49%

Compound: CCCCCCC1(C(=O)NCCN(CC)CC)CCc2c(C)c(O)c(C)c(C)c2O1 (stereo not shown) [b, N-(3,4-dihydro-2-hexyl-6-hydroxy-5,7,8-trimethyl-2H-1-benzopyran-2-carbonyl)-N′,N′-diethyl Ethylenediamine]
- % Inhibition ([1]; compound concentration 10 μM): 7.7%
- % Inhibition ([1]; compound concentration 50 μM): 91%

Compound: CCCCCCCCCCCCC1(C(=O)NCCN(CC)CC)CCc2c(C)c(O)c(C)c(C)c2O1 (stereo not shown) [c, N-(3,4-dihydro-2-dodecyl-6-hydroxy-5,7,8-trimethyl-2H-1-benzopyran-2-carbonyl)-N′,N′-diethyl Ethylenediamine]
- % Inhibition ([1]; compound concentration 200 μM): 0%
- % Inhibition ([1]; compound concentration 400 μM): 48.6%
- % Inhibition ([1]; compound concentration 500 μM): 93.8%

Compound: CCN(CC)CCNC(=O)c1c(O)c(C)c(C)c2c1CCC(C)(C)O2 [d, N-(3,4-dihydro-6-hydroxy-2,2,7,8-tetramethyl-2H-1-benzopyran-5-carbonyl)-N′,N′-diethyl Ethylenediamine]
- % Inhibition ([1]; compound concentration 10 μM): 38.4%
- % Inhibition ([1]; compound concentration 50 μM): 98.1%

Compound: CCCCCCC1(C)CCc2c(c(C)c(C)c(O)c2C(=O)NCCN(CC)CC)O1 (stereo not shown) [e, N-(3,4-dihydro-2-hexyl-6-hydroxy-2,7,8-trimethyl-2H-1-benzopyran-5-carbonyl)-N′,N′-diethyl Ethylenediamine]
- % Inhibition ([1]; compound concentration 50 μM): 87.4%

Compound: CCCCCCCCCCCCC1(C)CCc2c(c(C)c(C)c(O)c2C(=O)NCCN(CC)CC)O1 (stereo not shown) [f, N-(3,4-dihydro-2-dodecyl-6-hydroxy-2,7,8-trimethyl-2H-1-benzopyran-5-carbonyl)-N′,N′-diethyl Ethylenediamine]
- % Inhibition ([1]; compound concentration 50 μM): 0%
- % Inhibition ([1]; compound concentration 1000 μM): 100%

Compound: CCN(CC)CC(=O)Nc1c(O)c(C)c(C)c2c1CCC(C)(C)O2 [g, N-(3,4-dihydro-6-hydroxy-2,2,7,8-tetramethyl-2H-1-benzopyran-5-yl)-(diethylamino)acetamide]
- % Inhibition ([1]; compound concentration 5 μM): 72.4%
- % Inhibition ([1]; compound concentration 10 μM): 100%
- Incidence of arrhythmias during the reperfusion period ([2]; 30 μM): 8 ± 2.1
- Incidence of arrhythmias during the reperfusion period ([2]; 100 μM): 7 ± 2

Compound: CCCCCCC1(C)CCc2c(NC(=O)CN(CC)CC)c(O)c(C)c(C)c2O1 (stereo not shown) [h, N-(3,4-dihydro-2-hexyl-6-hydroxy-2,7,8-trimethyl-2H-1-benzopyran-5-yl)-(diethylamino)acetamide]
- % Inhibition ([1]; compound concentration 5 μM): 17.4%
- % Inhibition ([1]; compound concentration 10 μM): 100%
- Incidence of arrhythmias during the reperfusion period ([2]; 30 μM): 6 ± 3
- Incidence of arrhythmias during the reperfusion period ([2]; 100 μM): 6 ± 2.5

Compound: CCN(CC)CC(=O)NC1CC(C)(C)Oc2c(C)c(C)c(O)c(C)c21 (stereo not shown) [i, N-(3,4-dihydro-6-hydroxy-2,2,5,7,8-pentamethyl-2H-1-benzopyran-4-yl)-(diethylamino)acetamide]
- % Inhibition ([1]; compound concentration 50 μM): 98.6%

Compound: CCCCCCC1(C)CC(NC(=O)CN(CC)CC)c2c(C)c(O)c(C)c(C)c2O1 (stereo not shown) [j, N-(3,4-dihydro-2-hexyl-6-hydroxy-2,5,7,8-tetramethyl-2H-1-benzopyran-4-yl)-(diethylamino)acetamide]
- % Inhibition ([1]; compound concentration 50 μM): 96.1%

Compound: Vitamin E [reference compound]
- % Inhibition ([1]; compound concentration 10 μM): 21%
